Where two headings read alike, the source gives them in different places.
What was measured:
[1] = tested on: S1-M1-3.2 cells; conditions: for Per Cent Survival with 3.2 μM mitoxantrone / Per Cent Survival Alone / Difference Score: S1-M1-3.2 cells; for Per Cent Survival Alone: 3 days; for Difference Score: survival alone minus survival with 3.2 μM mitoxantrone
Procedure: One of the first reported molecules with reversing activity was verapamil, a calcium channel blocker. […] Cells were plated into 96-well dishes (100 μl/well) in growth medium supplemented with 5% FBS. […] Reversal agents were tested from 0.1-80 μM (triplicate points per dose). In parallel wells, cells were grown in the presence of the reversal agent alone.
The Difference Score is the difference in the percentage of cells surviving when the drug was given alone minus the percentage of cells surviving when the drug was given along with the antitumor agent.
Cell survival was estimated using the Sulforhodamine (SRB) assay.

[2] = tested on: P-gp expressing cells; conditions: P-gp reversal; cited from earlier work
[3] = tested on: S1-B1-20 cells; assay: Reversal of resistance in P-gp expressing cells, alone or with 21 μM bisantrene; assay type: cell-based, human; parameters: Difference Score: unit not given here; conditions: for Per Cent Survival with 21 μM bisantrene / Per Cent Survival Alone / Difference Score: S1-B1-20 cells; for Difference Score: survival alone minus survival with 21 μM bisantrene
Procedure: To determine the specificity of FTC for non P-gp multidrug resistance, FTC was tested on S1-B1-20 cells which were selected for resistance to bisantrene and which express high levels of P-gp (Table 9)(Zhang, et al, Oncol. Res. 6291-301 (1994)). […] The 21 μM concentration of bisantrene is not inhibitory to the growth of the cells. Values shown are mean ± standard deviation from triplicate test wells.

COc1ccc(C(C#N)(CCCCCN2CCc3cc(OC)c(OC)cc3C2)Sc2ccc(C)cc2)cc1OC (stereo not drawn) [α-(3,4-dimethoxyphenyl)-3,4-dihydro-6,7-dimethoxy-α-[(4-methylphenyl)thio]-2(1H)-isoquinolineheptanenitrile, reference compound]
Per Cent Survival with 3.2 μM mitoxantrone ([1]; drug 0.1 μM): 98 ± 2 Per Cent
Per Cent Survival Alone ([1]; drug 0.1 μM alone): 98 ± 2 Per Cent
Difference Score ([1]; drug 0.1 μM): 0
Per Cent Survival with 3.2 μM mitoxantrone ([1]; drug 0.5 μM): 98 ± 0 Per Cent
Per Cent Survival Alone ([1]; drug 0.5 μM alone): 100 ± 0 Per Cent
Difference Score ([1]; drug 0.5 μM): 2
Per Cent Survival with 3.2 μM mitoxantrone ([1]; drug 1 μM): 99 ± 2 Per Cent
Per Cent Survival Alone ([1]; drug 1 μM alone): 101 ± 1 Per Cent
Difference Score ([1]; drug 1 μM): 2
Per Cent Survival with 3.2 μM mitoxantrone ([1]; drug 5 μM): 63 ± 8 Per Cent
Per Cent Survival Alone ([1]; drug 5 μM alone): 78 ± 8 Per Cent
Difference Score ([1]; drug 5 μM): 15
Per Cent Survival with 3.2 μM mitoxantrone ([1]; drug 10 μM): 36 ± 11 Per Cent
Per Cent Survival Alone ([1]; drug 10 μM alone): 39 ± 18 Per Cent
Difference Score ([1]; drug 10 μM): 3
Per Cent Survival with 3.2 μM mitoxantrone ([1]; drug 20 μM): 21 ± 10 Per Cent
Per Cent Survival Alone ([1]; drug 20 μM alone): 21 ± 13 Per Cent
Difference Score ([1]; drug 20 μM): 0
Per Cent Survival with 3.2 μM mitoxantrone ([1]; drug 40 μM): 16 ± 4 Per Cent
Per Cent Survival Alone ([1]; drug 40 μM alone): 16 ± 5 Per Cent
Difference Score ([1]; drug 40 μM): 0
Per Cent Survival with 3.2 μM mitoxantrone ([1]; drug 80 μM): 13 ± 2 Per Cent
Per Cent Survival Alone ([1]; drug 80 μM alone): 13 ± 1 Per Cent
Difference Score ([1]; drug 80 μM): 0
reversal activity in S1-M1-3.2 cells (in words) ([1]; with mitoxantrone): not reversed
potency relative to verapamil [2]: at least 10 fold
Per Cent Survival with 21 μM bisantrene ([3]; drug 0.1 μM): 92 ± 1 Per Cent
Per Cent Survival Alone ([3]; drug 0.1 μM alone): 99 ± 4 Per Cent
Difference Score ([3]; drug 0.1 μM): 7
Per Cent Survival with 21 μM bisantrene ([3]; drug 0.5 μM): 10 ± 0 Per Cent
Per Cent Survival Alone ([3]; drug 0.5 μM alone): 97 ± 1 Per Cent
Difference Score ([3]; drug 0.5 μM): 87
Per Cent Survival with 21 μM bisantrene ([3]; drug 1 μM): 4 ± 0 Per Cent
Per Cent Survival Alone ([3]; drug 1 μM alone): 94 ± 2 Per Cent
Difference Score ([3]; drug 1 μM): 90
Per Cent Survival with 21 μM bisantrene ([3]; drug 5 μM): 4 ± 0 Per Cent
Per Cent Survival Alone ([3]; drug 5 μM alone): 90 ± 1 Per Cent
Difference Score ([3]; drug 5 μM): 86
Per Cent Survival with 21 μM bisantrene ([3]; drug 10 μM): 4 ± 0 Per Cent
Per Cent Survival Alone ([3]; drug 10 μM alone): 50 ± 1 Per Cent
Difference Score ([3]; drug 10 μM): 46
Per Cent Survival with 21 μM bisantrene ([3]; drug 20 μM): 4 ± 0 Per Cent
Per Cent Survival Alone ([3]; drug 20 μM alone): 14 ± 1 Per Cent
Difference Score ([3]; drug 20 μM): 10
Per Cent Survival with 21 μM bisantrene ([3]; drug 40 μM): 4 ± 0 Per Cent
Per Cent Survival Alone ([3]; drug 40 μM alone): 4 ± 0 Per Cent
Difference Score ([3]; drug 40 μM): 0
Per Cent Survival with 21 μM bisantrene ([3]; drug 80 μM): 4 ± 0 Per Cent
Per Cent Survival Alone ([3]; drug 80 μM alone): 4 ± 0 Per Cent
Difference Score ([3]; drug 80 μM): 0
reversal of resistance in P-gp positive S1-B1-20 cells (in words) ([3]; bisantrene-selected): reversible

— US20020169111A1, “Reversal of multidrug resistance in human colon carcinoma cells” (American Cyanamid Comany, priority 1998, published 2002)
